Source: patent US20130296311A1, “INHIBITORS OF HCV NS5A” (PRESIDIO PHARMACEUTICALS, INC., priority 2010, published 2013)

system: HCV 1b_Huh-Luc/Neo-ET cell line persistently expressing a bicistronic genotype 1b replicon in Huh 7 cells; assay: HCV replicon assay (luciferase readout, 72 h); type: cell-based, HCV genotype 1b; settings: Hepatitis C virus, Huh-7, 72 h, read-out: Inhibition of HCV genotype 1b
Outline: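 EC50 values come from a four-parameter fit of luciferase signal as % of untreated control, repeated across several determinations. The signal is from the HCV 1b_Huh-Luc/Neo-ET replicon line, dosed in triplicate one day post-plating and incubated 72 h before Bright-Glo readout.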

| SMILES | EC50 |
| --- | --- |
| CC(C)(C)OC(=O)N[C@@H](C(=O)N1CCC[C@H]1c1ncc(-c2ccc(C#Cc3ccc(-c4cnc([C@@H]5CCCN5C(=O)[C@H](NC(=O)OC(C)(C)C)c5ccccc5)[nH]4)cc3)cc2)[nH]1)c1ccccc1 [Compound 246] | < 1 nM |
| COC(=O)N[C@H](C(=O)N1CCC[C@H]1c1ncc(-c2ccc(C#Cc3ccc(-c4cnc([C@@H]5CCCN5C(=O)[C@@H](NC(=O)N5CCN(CCO)CC5)c5ccccc5)[nH]4)cc3)cc2)[nH]1)C(C)C [Compound 990] | 1 to 9.9 nM |
| COC(=O)N[C@H](C(=O)N1CCC[C@H]1c1ncc(-c2ccc3cc(C#Cc4ccc5nc([C@@H]6CCCN6C(=O)[C@@H](NC(=O)OC)C(C)C)[nH]c5c4)ccc3c2)[nH]1)C(C)C [Compound 1111] | < 1 nM |
| CC[C@H](NC(=O)OC)C(=O)N1CCC[C@H]1c1ncc(-c2ccc(C#Cc3ccc4nc([C@@H]5CCCN5C(=O)[C@H](CC)NC(=O)OC)[nH]c4c3)cc2)[nH]1 [Compound 1036] | < 1 nM |
| COC(=O)N[C@@H](C)C(=O)N1CCC[C@H]1c1ncc(-c2ccc(C#Cc3ccc(-c4cnc([C@@H]5CCCN5C(=O)[C@@H](c5ccccc5)N5CCOC5=O)[nH]4)cc3)cc2)[nH]1 [Compound 1008] | < 1 nM |
| C[C@@H](c1ncc(-c2ccc(C#Cc3ccc(-c4cnc([C@@H]5CCCN5C(=O)[C@H](NC(=O)C5CC5)c5ccccc5)[nH]4)cc3)cc2)[nH]1)N(C)C(=O)[C@H](NC(=O)C1CC1)c1ccccc1 [Compound 278] | < 1 nM |
| O=C(NCC(=O)N1CCC[C@H]1c1ncc(C#Cc2ccc(-c3cnc([C@@H]4CCCN4C(=O)CNC(=O)C4CC4)[nH]3)cc2)[nH]1)C1CC1 [Compound 113] | 10 to 999 nM |
| COC(=O)N[C@H](C(=O)N1CCC[C@H]1c1nc2ccc3cc(C#Cc4ccc(-c5cnc([C@@H]6CCCN6C(=O)[C@@H](NC(=O)OC)C6CCOCC6)[nH]5)cc4F)ccc3c2[nH]1)C(C)C [Compound 1099] | < 1 nM |
| [2H]C([2H])([2H])C([2H])(C([2H])([2H])[2H])[C@]([2H])(NC(=O)OC)C(=O)N1CCC[C@H]1c1nc2ccc(C#Cc3ccc4c(c3)CCc3nc([C@@H]5CCCN5C(=O)[C@@H](NC(=O)OC)C(C)C)[nH]c3-4)cc2[nH]1 [Compound 1106] | < 1 nM |
| COC[C@H](NC(=O)OC)C(=O)N1CCC[C@H]1c1ncc(-c2ccc(C#Cc3ccc(-c4cnc([C@@H]5CCCN5C(=O)[C@H](COC)NC(=O)OC)[nH]4)cc3)cc2)[nH]1 [Compound 976] | < 1 nM |
| C[C@@H](NC(=O)[C@@H]1CCCN1C(=O)[C@H](NC(=O)OC(C)(C)C)c1ccccc1)c1ccc(C#Cc2ccc(-c3cnc([C@@H]4CCCN4C(=O)[C@H](NC(=O)OC(C)(C)C)c4ccccc4)[nH]3)cc2)cc1 [Compound 167] | 1 to 9.9 nM |
| CNC(=O)N[C@@H](C(=O)N1CCC[C@H]1c1ncc(-c2ccc(C#Cc3ccc(-c4cnc([C@@H]5CCCN5C(=O)[C@H](NC(=O)NC)c5ccccc5)[nH]4)cc3)cc2)[nH]1)c1ccccc1 [Compound 162] | < 1 nM |
| CCN(CC)[C@@H](C(=O)N1CCC[C@H]1c1ncc(-c2ccc(C#Cc3ccc(-c4cnc([C@@H]5CCCN5C(=O)[C@H](NC(=O)OC)c5ccccc5)[nH]4)cc3)cc2)[nH]1)c1ccccc1 [Compound 175] | < 1 nM |
| COC(=O)N[C@H](C(=O)N1CCC[C@H]1c1nc2ccc(C#Cc3ccc(-c4cnc([C@@H]5CCCN5C(=O)[C@H](NC(=O)OC)c5ccccc5)[nH]4)cc3)cc2[nH]1)C(C)C [Compound 1022] | < 1 nM |
| CC(C)[C@H](NC(=O)N1CC[C@@H](O)C1)C(=O)N1CCC[C@H]1c1ncc(-c2ccc(C#Cc3ccc(-c4cnc([C@@H]5CCCN5C(=O)[C@@H](NC(=O)N5CC[C@@H](O)C5)C(C)C)[nH]4)cc3)cc2)[nH]1 [Compound 968] | 10 to 999 nM |
| COC(=O)N[C@H](C(=O)N1CCC[C@H]1c1ncc(-c2ccc(C#Cc3ccc(-c4cnc([C@H](C)NC(=O)[C@@H](C(C)C)N(C)C)[nH]4)cc3)cc2)[nH]1)C(C)C [Compound 982] | 10 to 999 nM |

| SMILES | EC50 |
| --- | --- |
| COC[C@H](NC(=O)OC)C(=O)N1CCC[C@H]1c1ncc(-c2ccc(C#Cc3ccc4nc([C@@H]5CCCN5C(=O)[C@H](COC)NC(=O)OC)[nH]c4c3)cc2)[nH]1 [Compound 1037] | < 1 nM |
| COC(=O)N[C@H](C(=O)N1CCC[C@H]1c1ncc(-c2ccc(C#Cc3ccc4nc([C@@H]5CCCN5C(=O)[C@@H](NC(=O)OC)C(C)(C)C)[nH]c4c3)cc2)[nH]1)C(C)(C)C [Compound 1041] | < 1 nM |
| COC(=O)N[C@H](C(=O)N1CCC[C@H]1c1ncc(-c2cccc3c(C#Cc4ccc5nc([C@@H]6CCCN6C(=O)[C@@H](NC(=O)OC)C(C)C)[nH]c5c4)cccc23)[nH]1)C(C)C [Compound 1112] | < 1 nM |
| COC(=O)N[C@H](CC(=O)N1CCC[C@H]1c1ncc(-c2ccc(C#Cc3ccc4nc([C@@H]5CCCN5C(=O)C[C@@H](NC(=O)OC)C(C)C)[nH]c4c3)cc2)[nH]1)C(C)C [Compound 1065] | 10 to 999 nM |
| CCN(CC)[C@@H](C(=O)N1CCC[C@H]1c1ncc(-c2ccc(C#Cc3ccc(-c4cnc([C@@H]5CCCN5C(=O)[C@@H](NC(=O)OC)C(C)C)[nH]4)cc3)cc2)[nH]1)c1ccccc1 [Compound 985] | < 1 nM |
| CCN(CC)[C@@H](C(=O)N1CCC[C@H]1c1ncc(-c2ccc(C#Cc3ccc(-c4cnc([C@@H]5CCCN5C(=O)[C@@H](c5ccccc5)N(CC)CC)[nH]4)cc3)cc2)[nH]1)c1ccccc1 [Compound 173] | < 1 nM |
| COC(=O)N[C@H](C(=O)N1CCC[C@H]1c1ncc(-c2ccc(C#Cc3ccc(-c4cnc([C@@H]5CCCN5C(=O)[C@@H](NC(=O)OC)C(C)C)[nH]4)cn3)cc2)[nH]1)C(C)C [Compound 1009] | < 1 nM |
| CC(C)[C@H](NC(=O)N1CCC(O)CC1)C(=O)N1CCC[C@H]1c1ncc(-c2ccc(C#Cc3ccc(-c4cnc([C@@H]5CCCN5C(=O)[C@@H](NC(=O)N5CCC(O)CC5)C(C)C)[nH]4)cc3)cc2)[nH]1 [Compound 286] | > 1000 nM |
| COC(=O)N[C@@H]1CCC[C@H]1C(=O)N1CCC[C@H]1c1ncc(-c2ccc(C#Cc3ccc4nc([C@@H]5CCCN5C(=O)[C@@H]5CCC[C@H]5NC(=O)OC)[nH]c4c3)cc2)[nH]1 [Compound 1058] | 10 to 999 nM |
| COC(=O)N[C@@H](C(=O)N1CCC[C@H]1c1ncc(-c2ccc(C#Cc3ccc(-c4cnc([C@@H]5CCCN5C(=O)[C@H](NC(=O)C5(O)CC5)c5ccccc5)[nH]4)cc3)cc2)[nH]1)c1ccccc1 [Compound 277] | < 1 nM |
| CC(C)[C@H](NC(=O)N1CCNCC1)C(=O)N1CCC[C@H]1c1ncc(-c2ccc(C#Cc3ccc(-c4cnc([C@@H]5CCCN5C(=O)[C@@H](NC(=O)N5CCNCC5)C(C)C)[nH]4)cc3)cc2)[nH]1 [Compound 967] | 10 to 999 nM |
| COC(=O)N[C@@H](C(=O)N1CCC[C@H]1c1ncc(-c2ccc(C#Cc3cnc([C@@H]4CCCN4C(=O)[C@@H](c4ccccc4)N(C)C)[nH]3)cc2)[nH]1)c1ccccc1 [Compound 128] | < 1 nM |
| CC(C)[C@@H](NC(=O)OC(C)(C)C)C(=O)N1CCC[C@H]1c1ncc(C#Cc2ccc(-c3cnc([C@@H]4CCCN4C(=O)[C@H](NC(=O)OC(C)(C)C)C(C)C)[nH]3)cc2)[nH]1 [Compound 105] | 10 to 999 nM |
| C[C@@H](NC(=O)OC(C)(C)C)C(=O)N1CCC[C@H]1c1ncc(-c2ccc(C#Cc3ccc(-c4cnc([C@@H]5CCCN5C(=O)[C@@H](C)NC(=O)OC(C)(C)C)[nH]4)cc3)cc2)[nH]1 [Compound 151] | 10 to 999 nM |
| O=C(N[C@@H](C(=O)N1CCC[C@H]1c1ncc(-c2ccc(C#Cc3ccc(-c4cnc([C@@H]5CCCN5C(=O)[C@@H](c5ccccc5)N5CCCC5)[nH]4)cc3)cc2)[nH]1)c1ccccc1)C1CC1 [Compound 217] | < 1 nM |

same assay, conditions: Hepatitis C virus, Huh-7, read-out: Inhibition of HCV genotype 1b

| SMILES | EC50 |
| --- | --- |
| COC(=O)N[C@H](C(=O)N[C@@H](C)c1ncc(-c2ccc(C#Cc3ccc4nc([C@@H]5CCCN5C(=O)[C@@H](NC(=O)OC)C5CCOCC5)[nH]c4c3)cc2)[nH]1)C1CCOCC1 [Compound 1227] | 1 to 9.9 nM |
| COC(=O)NC(C(=O)N1CCC[C@H]1c1nc2ccc(C#Cc3ccc4cc(-c5cnc([C@@H]6CCCN6C(=O)[C@@H](NC(=O)OC)C6CCOCC6)[nH]5)ccc4n3)cc2[nH]1)C(C)C (some centres unmarked) [Compound 1290] | < 1 nM |
| COC(=O)N[C@H](C(=O)N1CCC[C@H]1CNC(=O)c1ccc(C#Cc2ccc3nc([C@@H]4CCCN4C(=O)[C@@H](NC(=O)OC)C(C)C)[nH]c3c2)cc1)C(C)C [Compound 1238] | < 1 nM |
| COC(=O)N[C@H](C(=O)N1CCC[C@H]1c1nc2ccc(C#Cc3ccc(-c4cnc([C@@H]5CCCN5C(=O)[C@@H](NC(=O)OC)C5CCOCC5)[nH]4)cc3)cc2[nH]1)C(C)C [Compound 1237] | < 1 nM |
| COC(=O)N[C@H](C(=O)N1CCC[C@H]1c1ncc(-c2ccc(C#Cc3ccc4c(ccc5nc([C@@H]6CCCN6C(=O)[C@@H](NC(=O)OC)[C@@H](C)OC)[nH]c54)c3)cc2)[nH]1)C(C)C [Compound 1271] | < 1 nM |
| COC(=O)N[C@H](C(=O)N1CCN(C(=O)OC)C[C@H]1c1ncc(-c2ccc(C#Cc3ccc(-c4cnc([C@@H]5CCCN5C(=O)[C@H](NC(=O)OC5CCOCC5)c5ccccc5)[nH]4)cc3)cc2)[nH]1)C(C)C [Compound 1207] | < 1 nM |
| COC(=O)N[C@H](C(=O)N1CCC[C@H]1c1nc2ccc(C#Cc3ccc4c(ccc5nc([C@@H]6CCCN6C(=O)[C@@H](NC(=O)OC)C6CCOCC6)[nH]c54)c3)cc2[nH]1)C(C)C [Compound 1287] | < 1 nM |
| COC(=O)N[C@H](C(=O)N1CCC[C@H]1c1ncc(-c2ccc(C#Cc3ccc4nc([C@@H]5CCCN5C(=O)[C@@H](NC(=O)OC)C5CCCOC5)[nH]c4c3)cc2)[nH]1)C(C)C (some centres unmarked) [Compound 1244] | < 1 nM |
| COC(=O)N[C@H](C(=O)N1CCC[C@H]1c1ncc(-c2ccc(C#Cc3ccc4c(ccc5nc([C@@H]6CCCN6C(=O)[C@@H](NC(=O)OC)C6CCOCC6)[nH]c54)c3)cc2)[nH]1)C(C)C [Compound 1272] | < 1 nM |
| COC(=O)N[C@H](C(=O)N1CCC[C@H]1c1nc2ccc3cc(C#Cc4ccc5nc([C@@H]6CCCN6C(=O)[C@H](NC(=O)OC)c6ccccc6)[nH]c5c4)ccc3c2[nH]1)C(C)C [Compound 1275] | < 1 nM |
